{"source": "patent US20080300135A1", "about": "“5-Alkyl-7-Amino-6-Heteroaryl-1,2,4-Triazolo[1,5-A]Pyrimidine Compounds and Their Use for Controlling Harmful Fungi” (BASF Aktiengesellschaft, priority 2005, published 2008)", "key": {"Pyricularia oryzae": {"test_system": "Pyricularia oryzae", "assay_type": "cell-based", "details": "125 ppm, day 7 after inoculation, absorption 405 nm, control = 100%"}, "Puccinia recondita": {"test_system": "Puccinia recondita", "experiment": "Curative activity against brown rust of wheat (greenhouse test)", "assay_type": "in vivo", "details": "250 ppm, curative spray on wheat seedlings cv. Kanzler, 7 days; untreated control 90% infected", "protocol": "The active compounds were prepared separately as a stock solution with 25 mg of active compound which was made up to 10 ml with a mixture of acetone and/or DMSO and the emulsifier Uniperol® EL (wetting agent having emulsifying and dispersing action based on ethoxylated alkylphenols) in a solvent/emulsifier volume ratio of 99 to 1. The solution was then made up to 100 ml with water. This stock solution was diluted to the active compound concentration stated below using the solvent/emulsifier/water mixture described.\nExample No. 1—Curative activity against brown rust of wheat caused by Puccinia recondita\nLeaves of potted wheat seedlings of the cultivar “Kanzler” were inoculated with a spore suspension of brown rust (Puccinia recondita). The pots were then placed in a chamber with high atmospheric humidity (90 to 95%) and 20 to 22° C. for 24 hours. During this time, the spores germinated and the germ tubes penetrated into the leaf tissue. The next day, the infected plants were sprayed to runoff point with the above-described active compound solution at the active compound concentration stated below. After the spray coating had dried on, the test plants were cultivated in a greenhouse at temperatures between 20 and 22° C. and at 65 to 70% relative atmospheric humidity for 7 days. The extent of the rust fungus development on the leaves was then determined."}}, "data": [{"smiles": "Cc1cc(C)n(-c2c(C)nc3ncnn3c2N2CCC(C)CC2)n1", "note": "[Compound C-1, 6-(3,5-Dimethylpyrazol-1-yl)-5-methyl-7-(4-methylpiperidin-1-yl)-[1,2,4]-triazolo[1,5-a]pyrimidin]", "values": [{"measurement": "relative growth", "setting": "Pyricularia oryzae", "value": 0, "unit": "%"}, {"measurement": "infection", "setting": "Puccinia recondita", "value": 10, "unit": "%"}]}]}
